# Target: T1, TRPC5 (Homo sapiens, UniProt Q9UL62)
# T1 construct: expressed in transfected cells; host or cells: HEK 293
# T1 sequence (Q9UL62 1-973): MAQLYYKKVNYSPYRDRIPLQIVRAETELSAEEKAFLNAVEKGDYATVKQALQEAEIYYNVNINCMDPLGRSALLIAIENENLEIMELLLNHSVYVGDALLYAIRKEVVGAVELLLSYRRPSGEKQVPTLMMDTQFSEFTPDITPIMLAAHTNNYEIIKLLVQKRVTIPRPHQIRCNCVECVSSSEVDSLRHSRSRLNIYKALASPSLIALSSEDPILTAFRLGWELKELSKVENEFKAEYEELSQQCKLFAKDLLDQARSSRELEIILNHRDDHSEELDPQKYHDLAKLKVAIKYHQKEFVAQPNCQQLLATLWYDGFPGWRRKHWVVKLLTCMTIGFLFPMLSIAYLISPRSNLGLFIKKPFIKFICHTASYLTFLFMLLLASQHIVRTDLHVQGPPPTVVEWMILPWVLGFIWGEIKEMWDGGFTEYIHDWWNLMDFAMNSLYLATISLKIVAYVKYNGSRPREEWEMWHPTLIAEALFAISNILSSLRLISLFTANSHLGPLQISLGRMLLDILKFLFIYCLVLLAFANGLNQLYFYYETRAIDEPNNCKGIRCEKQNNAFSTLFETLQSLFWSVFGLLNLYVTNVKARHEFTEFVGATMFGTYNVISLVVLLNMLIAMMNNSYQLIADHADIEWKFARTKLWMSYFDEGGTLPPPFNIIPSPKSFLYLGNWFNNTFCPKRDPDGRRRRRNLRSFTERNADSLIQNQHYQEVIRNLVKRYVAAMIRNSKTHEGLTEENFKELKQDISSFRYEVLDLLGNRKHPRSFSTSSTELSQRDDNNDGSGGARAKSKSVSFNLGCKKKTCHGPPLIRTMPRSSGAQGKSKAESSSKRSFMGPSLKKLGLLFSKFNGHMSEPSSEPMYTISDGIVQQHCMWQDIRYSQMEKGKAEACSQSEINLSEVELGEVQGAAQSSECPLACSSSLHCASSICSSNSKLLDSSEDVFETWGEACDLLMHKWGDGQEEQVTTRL
# Experiment: TRPC5 Fluorescence Assay - FLIPR format (HEK-TREx hTRPC5, Riluzole stimulation)
# Type: cell-based
# Conditions: Table 7, read-out: TRPC5-FLIPR IC50
# Procedure: • Cell line: ICLN-001633 • Base Cell: HEK • Channel: TRPC5 • Species: Human • Thaw ID: multiple • Passage: multiple
# FLIPR Assay Buffer (Earls Balanced Salt Solution (EBSS) was prepared as follows:
# Test Agent Preparation: Compounds were made up to, or supplied as, a 10 mM stock solution generally using DMSO as the vehicle. 10-point dose response curves were generated using the Echo-550 acoustic dispenser. Compound source plates were made by serially diluting compound stocks to create 10 mM, 1 mM, and 0.1 mM solutions in DMSO into Echo certified LDV plates. The Echo then serially spotted 100% DMSO stock solutions into source dose response plates to generate a 4-fold dilution scheme. 100% DMSO was added to the spotted dose response plates to bring the final volume to 5 μl. […] of the dose response stock plate was then spotted into pre-incubation and stimulation assay plates. 50 μl of pre-incubation buffer and 100 μl of stimulation buffer was then added to the plates resulting in a final assay test concentration range of 30 μM to 0.0001 μM with a final DMSO concentration of 0.3%.
# Experimental Methods: Cells expressing TRPC5 (HEK-TREx hTRPC5) are plated onto 384 well, black PDL-coated microplates and maintained in TRPC5 growth media the day prior to use for experiments. TRPC5 expression is induced by the application of […] tetracycline at the time of plating. Media is removed from the plates and 10 μl of 4 μM of Fluo-4 AM (mixed with equal volume of Pluronic F-127) in EBSS is added to the cells. Cells are incubated at room temperature, protected from light, for 60-90 minutes. After the incubation period, the dye is removed and replaced with 10 μl of EBSS. Cell, pre-incubation and stimulation plates are loaded onto the FLIPR-II and the assay is initiated. The FLIPR measures a 10 second baseline and then adds 10 μl of 2× compounds (or controls). Changes in fluorescence are monitored for an additional 5 minutes. After the 5 minute pre-incubation, 20 μl of 2× Riluzole (with 1× compound or controls) is added to the cell plate. The final Riluzole stimulation concentration in the assay is 30 μM. After the Riluzole addition, changes in fluorescence are monitored for an additional 5 minutes.
# Test Agent Effect: Test agent modulation of TRPC5 calcium response was determined as follows. After the Riluzole, fluorescence was monitored for a 5 minute period. The maximum relative fluorescene response (minus the control response of 1 μM of the control inhibitor) was captured and exported from the FLIPR. Test agent effect was calculated as % inhibition using the following formula: % inhibition=((RFU Test Agent−Plate Average RFU REF INHIB)/(Plate Average RFU Control−Plate Average RFU REF INHIB))×100
row,IC50 [nM],Compound
1,0.01 to 1000,COc1nn(Cc2ccccc2C(F)F)c2c1CN(c1cn[nH]c(=O)c1Cl)CC2 [drawing 931]
2,0.01 to 1000,O=c1[nH]ncc(N2CCc3c(ncn3Cc3cccnc3CC(F)F)C2)c1Cl [drawing 929]
3,0.01 to 1000,COCc1ncccc1CN1CCN(c2cn[nH]c(=O)c2Cl)CC1 [drawing 926]
4,0.01 to 1000,CN(C)C(=O)c1nn(Cc2ccccc2C(F)F)c2c1CN(c1cn[nH]c(=O)c1Cl)CC2

# Same assay, conditions: Table 9, read-out: hTRPCS-FLIPR IC50
row,IC50 [nM],Compound
1,0.01 to 1000,COCc1ncccc1CN1CCN(c2cn[nH]c(=O)c2Cl)CC1 [drawing 1030]
2,1000 to 5000,CCn1nnc(C)c1CN1CCN(c2cn[nH]c(=O)c2Cl)CC1
3,0.01 to 1000,CC[C@@H](c1cccnc1CC(C)C)C1CCN(c2cn[nH]c(=O)c2Cl)CC1
4,5000 to 10000,CCc1ncccc1NC1CCN(c2cn[nH]c(=O)c2Cl)CC1
5,0.01 to 1000,C[C@@H]1CN([C@@H](C)c2ccc(F)cc2C(F)(F)F)C(=O)CN1c1cn[nH]c(=O)c1Cl
6,1000 to 5000,CCc1ncccc1[C@H](C(C)C)N1CCN(c2cn[nH]c(=O)c2Cl)CC1
7,1000 to 5000,O=c1[nH]ncc(N2CCN(S(=O)(=O)Cc3ccccc3C(F)(F)F)CC2)c1Cl
8,0.01 to 1000,CC(F)(F)c1ccccc1CC1(O)CCN(c2cn[nH]c(=O)c2Cl)CC1
9,0.01 to 1000,CCc1ncccc1[C@@H](C(C)C)N1CCN(c2cn[nH]c(=O)c2Cl)CC1
10,1000 to 5000,CCc1ncccc1CC1(O)CCN(c2cn[nH]c(=O)c2Cl)CC1
11,1000 to 5000,CCc1ncccc1[C@H](CC)N1CCN(c2cn[nH]c(=O)c2C#N)CC1
12,1000 to 5000,CCc1ncccc1[C@@H](CC)N1CCN(c2cn[nH]c(=O)c2Cl)CC1
13,1000 to 5000,C[C@H](c1ccccc1C(F)(F)F)N1CCN(c2cn[nH]c(=O)c2Cl)CC1=O
14,0.01 to 1000,CCc1ncccc1[C@@H](CC)N1CCN(c2cn[nH]c(=O)c2C#N)CC1
15,1000 to 5000,Cc1ccccc1CC1(OC(N)=O)CCN(c2cn[nH]c(=O)c2Cl)CC1

# Same assay, conditions: Table 10, read-out: TRPCS-FLIPR IC50
row,IC50 [nM],Compound
1,1000 to 5000,CO[C@@H]1CN(c2cn[nH]c(=O)c2Cl)Cc2nnn(Cc3ccccc3C(F)F)c21
2,0.01 to 1000,O=c1[nH]ncc(N2CCc3c(nc(Oc4cccc(F)c4)n3Cc3ccccc3C(F)(F)F)C2)c1Cl
3,0.01 to 1000,C[C@@H](c1ccc(F)cc1C(F)F)n1nc(C(N)=O)c2c1CCN(c1cn[nH]c(=O)c1Cl)C2
4,0.01 to 1000,CS(=O)(=O)c1nn(Cc2ccc(F)cc2C(F)(F)F)c2c1CN(c1cn[nH]c(=O)c1Cl)CC2
5,0.01 to 1000,O=c1[nH]ncc(N2CCc3c(ncn3Cc3cccnc3CC(F)F)C2)c1Cl [drawing 1058]
6,0.01 to 1000,COC[C@@H](c1ccccc1C(F)(F)F)n1cnc2c1CCN(c1cn[nH]c(=O)c1Cl)C2
7,0.01 to 1000,C[C@H](c1ccc(F)cc1C(F)F)n1nnc2c1CCN(c1cn[nH]c(=O)c1Cl)C2
8,0.01 to 1000,CN(c1ccc(F)cc1C(F)(F)F)c1n[nH]c2c1CCN(c1cn[nH]c(=O)c1Cl)C2
9,0.01 to 1000,O=c1[nH]ncc(N2CCc3c(c(=O)[nH]n3Cc3ccccc3C(F)F)C2)c1Cl [drawing 1052]
10,1000 to 5000,O=c1[nH]ncc(N2CCc3c(c(-c4ncn[nH]4)nn3Cc3ccccc3C(F)(F)F)C2)c1Cl
11,0.01 to 1000,CC(C)C(=O)Nc1nn(Cc2ccccc2C(F)(F)F)c2c1CN(c1cn[nH]c(=O)c1Cl)CC2
12,0.01 to 1000,C[C@H](c1ccccc1C(F)(F)F)n1[nH]c(=O)c2c1CCN(c1cn[nH]c(=O)c1Cl)C2
13,1000 to 5000,O=c1[nH]ncc(N2CCc3c(nnn3Cc3ccccc3CO)C2)c1Cl
14,0.01 to 1000,C[C@H](c1cc(F)ccc1C(F)(F)F)n1nnc2c1CCN(c1cn[nH]c(=O)c1Cl)C2
15,0.01 to 1000,N#Cc1nn(Cc2ccccc2C(F)F)c2c1CN(c1cn[nH]c(=O)c1Cl)CC2
16,1000 to 5000,C[C@H](c1ccc(F)cc1CN1CCOCC1)n1nnc2c1CCN(c1cn[nH]c(=O)c1Cl)C2
17,0.01 to 1000,O=c1[nH]ncc(N2CCc3c(cnn3Cc3cccnc3[C@@H](O)C(F)(F)F)C2)c1Cl
18,5000 to 10000,C[C@@H](c1ccc(F)cc1CN1CCN(C)CC1)n1nnc2c1CCN(c1cn[nH]c(=O)c1Cl)C2
19,0.01 to 1000,O=c1[nH]ncc(N2CCc3c(ncn3Cc3cccnc3[C@H](O)C(F)(F)F)C2)c1Cl
20,1000 to 5000,O=c1[nH]ncc(C2=Cc3nnn(Cc4ccccc4C(F)(F)F)c3CC2)c1Cl
21,0.01 to 1000,C[C@@H](c1ccc(F)cc1C(F)(F)F)n1[nH]c(=O)c2c1CCN(c1cn[nH]c(=O)c1Cl)C2
22,0.01 to 1000,CS(=O)(=O)c1nn(Cc2ccc(F)cc2C(F)F)c2c1CN(c1cn[nH]c(=O)c1Cl)CC2

row,IC50 [nM],Compound
1,0.01 to 1000,C[C@H](c1ccc(F)cc1C(F)(F)F)c1n[nH]c2c1CCN(c1cn[nH]c(=O)c1Cl)C2
2,0.01 to 1000,C[C@H]1c2nnn([C@@H](C)c3ccccc3C(F)(F)F)c2CCN1c1cn[nH]c(=O)c1Cl
3,1000 to 5000,CO[C@H]1CN(c2cn[nH]c(=O)c2Cl)Cc2nnn(Cc3ccccc3C(F)F)c21
4,0.01 to 1000,C[C@@H](c1ccccc1C(F)(F)F)n1[nH]c(=O)c2c1CCN(c1cn[nH]c(=O)c1Cl)C2
5,0.01 to 1000,O=c1[nH]ncc(N2CCc3c(nnn3Cc3ccc(F)cc3Cl)C2)c1Cl
6,0.01 to 1000,COc1nn(Cc2ccccc2C(F)(F)F)c2c1CN(c1cn[nH]c(=O)c1Cl)CC2
7,1000 to 5000,N[C@H](c1nn(Cc2ccccc2C(F)(F)F)c2c1CN(c1cn[nH]c(=O)c1Cl)CC2)C(F)(F)F
8,5000 to 10000,NC[C@H](c1ccc(F)cc1C(F)(F)F)n1cnc2c1CCN(c1cn[nH]c(=O)c1Cl)C2
9,1000 to 5000,O=c1[nH]ncc(N2CCc3c(nnn3Cc3ccc(F)cc3CN3CCOCC3)C2)c1Cl
10,0.01 to 1000,C[C@H](c1cccnc1CC(F)F)n1nnc2c1CCN(c1cn[nH]c(=O)c1Cl)C2
11,1000 to 5000,CN(C)Cc1cc(F)ccc1Cn1nnc2c1CCN(c1cn[nH]c(=O)c1Cl)C2
12,0.01 to 1000,O=C(c1nn(Cc2ccccc2C(F)F)c2c1CN(c1cn[nH]c(=O)c1Cl)CC2)N1CCOCC1
13,0.01 to 1000,O=c1[nH]ncc(N2CCc3c(Nc4ccc(F)cc4C(F)(F)F)n[nH]c3C2)c1Cl
14,1000 to 5000,Nc1nn(Cc2ccccc2C(F)(F)F)c2c1CN(c1cn[nH]c(=O)c1Cl)CC2
15,0.01 to 1000,CC(=O)Nc1nn(Cc2ccccc2C(F)(F)F)c2c1CN(c1cn[nH]c(=O)c1Cl)CC2
16,0.01 to 1000,COc1nn(Cc2ccccc2C(F)F)c2c1CN(c1cn[nH]c(=O)c1Cl)CC2 [drawing 1056]
17,0.01 to 1000,C[C@@H](c1ccccc1C(F)(F)F)n1nc(C(N)=O)c2c1CCN(c1cn[nH]c(=O)c1Cl)C2
18,0.01 to 1000,O=C1COCCN1Cc1nn(Cc2ccccc2C(F)F)c2c1CN(c1cn[nH]c(=O)c1Cl)CC2
19,1000 to 5000,COC[C@@H](c1ccc(F)cc1C(F)(F)F)n1cnc2c1CCN(c1cn[nH]c(=O)c1Cl)C2
20,10000 to 500000,O=c1[nH]ncc(C2CCc3c(nnn3Cc3ccccc3C(F)(F)F)C2)c1Cl (stereo not drawn)
21,0.01 to 1000,CCc1ncsc1Cn1nnc2c1CCN(c1cn[nH]c(=O)c1Cl)C2
22,0.01 to 1000,N#Cc1nn(Cc2ccccc2C(F)(F)F)c2c1CN(c1cn[nH]c(=O)c1Cl)CC2
